Data published in patent US20170280720A1, “ARGININE […] INHIBITORS AND USES THEREOF” (EPIZYME, INC., priority 2014, published 2017).

Key:
Human CARM1 (PRMT4) = biological target: T1, Human CARM1 (PRMT4) (Homo sapiens, UniProt Q86X55); assay: CARM1 biochemical assay (3H-SAM Flashplate, peptide substrate); conditions: read-out: CARM1_ IC50
T1 construct: Flag-CARM1-His; made in house; host or cells: HEK 293F cells (BacMam baculovirus, pFastBacMam)
T1 sequence (Q86X55 2-585 isoform Q86X55-1): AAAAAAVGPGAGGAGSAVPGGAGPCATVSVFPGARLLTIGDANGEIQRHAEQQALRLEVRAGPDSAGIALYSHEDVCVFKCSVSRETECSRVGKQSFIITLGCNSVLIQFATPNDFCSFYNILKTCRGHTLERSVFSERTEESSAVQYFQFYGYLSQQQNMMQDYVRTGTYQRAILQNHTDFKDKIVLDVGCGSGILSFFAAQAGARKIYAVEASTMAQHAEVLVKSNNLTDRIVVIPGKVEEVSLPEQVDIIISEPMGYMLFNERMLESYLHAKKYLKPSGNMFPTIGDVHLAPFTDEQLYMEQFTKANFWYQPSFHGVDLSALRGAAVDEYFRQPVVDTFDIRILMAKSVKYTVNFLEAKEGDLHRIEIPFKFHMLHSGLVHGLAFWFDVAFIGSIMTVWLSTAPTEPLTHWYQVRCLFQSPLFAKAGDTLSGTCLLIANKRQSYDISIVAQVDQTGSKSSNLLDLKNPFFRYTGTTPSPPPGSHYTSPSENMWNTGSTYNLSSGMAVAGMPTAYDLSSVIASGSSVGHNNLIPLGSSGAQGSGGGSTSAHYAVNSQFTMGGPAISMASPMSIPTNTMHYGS
Source text: S-adenosylmethionine (SAM), S-adenosylhomocysteine (SAH), bicine, Tween20, dimethylsulfoxide (DMSO), bovine skin gelatin (BSG), sodium butyrate and Tris(2-carboxyethyl)phosphine hydrochloride solution (TCEP) were purchased from Sigma-Aldrich at the highest level of purity possible. ^3H-SAM was purchase from American Radiolabeled Chemicals with a specific activity of 80 Ci/mmol. 384-well streptavidin Flashplates were purchased from PerkinElmer.
Peptide representative of human histone H3 residues 16-30 was synthesized with an N-terminal linker-affinity tag motif and a C-terminal amide cap by 21st Century Biochemicals. The peptide was purified by high-performance liquid chromatography (HPLC) to greater than 95% purity and confirmed by liquid chromatography mass spectrometry (LC-MS). The sequence was Biot-Ahx-[…]-amide and contained a monomethylated arginine at position 26 (SEQ ID NO.: 14).
Human CARM1 (PRMT4) (NM_199141.1) transcript clone was amplified from an HEK 293 cDNA library, incorporating a flanking 5′ sequence encoding a FLAG tag ([…]) (SEQ ID NO.: 6) fused directly to Ala 2 of CARM1 and 3′ sequence encoding a hexa His sequence ([…]) (SEQ ID NO.: 15) fused directly to Ser 608. The gene sequence encoding isoform1 containing a deletion of amino acids 539-561 was amplified subsequently and subcloned into pFastBacMam (Viva Biotech).
Recombinant baculovirus were generated according to Bac-to-Bac kit instructions (Life Technologies). […] Infections were carried out at 37° C. for 48 hours, harvested by centrifugation, and stored at −80° C. for purification.
Column was washed with 500 mM NaCl in buffer A and Flag-CARM1-His was eluted with 200 ug/ml FLAG peptide in buffer A. Pooled fractions were dialyzed in 20 mM Tris, 150 mM NaCl, 5% glycerol and 1 mM DTT, pH 7.8. The purity of recovered protein was 94.
General Procedure for CARM1 Enzyme Assays on Peptide Substrates.
The assays were all performed in a buffer consisting of 20 mM Bicine (pH=7.6), 1 mM TCEP, 0.005% BSG, and 0.002% Tween 20, prepared on the day of use. Compounds in 100% DMSO (1 ul) were spotted into a polypropylene 384-well V-bottom plates (Greiner) using a Platemate Plus outfitted with a 384-channel head (Thermo Scientific). DMSO (1 ul) was added to Columns 11, 12, 23, 24, rows A-H for the maximum signal control and 1 ul of SAH, a known product and inhibitor of CARM1, was added to columns 11, 12, 23, 24, rows I-P for the minimum signal control. A cocktail (40 ul) containing the CARM1 enzyme was added by Multidrop Combi (Thermo-Fisher). The compounds were allowed to incubate with CARM1 for 30 min at room temperature, then a cocktail (10 ul) containing ^3H-SAM and peptide was added to initiate the reaction (final volume=51 ul). The final concentrations of the components were as follows: CARM1 was 0.25 nM, ^3H-SAM was 30 nM, peptide was 250 nM, SAH in the minimum signal control wells was 1 mM, and the DMSO concentration was 2%. The assays were stopped by the addition of non-radiolabeled SAM (10 ul) to a final concentration of 300 uM, which dilutes the ^3H-SAM to a level where its incorporation into the peptide substrate is no longer detectable. 50 ul of the reaction in the 384-well polypropylene plate was then transferred to a 384-well Flashplate and the biotinylated peptides were allowed to bind to the streptavidin surface for at least 1 hour before being washed once with 0.1% Tween20 in a Biotek ELx405 plate washer. The plates were then read in a PerkinElmer TopCount plate reader to measure the quantity of ^3H-labeled peptide bound to the Flashplate surface, measured as disintegrations per minute (dpm) or alternatively, referred to as counts per minute (cpm).
Where dpm=disintegrations per minute, cmpd=signal in assay well, and min and max are the respective minimum and maximum signal controls.
Where top and bottom are the normally allowed to float, but may be fixed at 100 or 0 respectively in a 3-parameter fit. […]

[1] = test system: asymmetric di-methyl PABP1 in RKO cells; assay: In Cell Western (ICW) for asymmetric di-methyl PABP1 and DNA content in RKO cells; assay type: cell-based; conditions: Homo sapiens, RKO
Source text: RKO adherent cells were purchased from ATCC (American Type Culture Collection), Manassas, Va., USA. DMEM/Glutamax medium, penicillin-streptomycin, heat inactivated fetal bovine serum, 0.05% trypsin and D-PBS were purchased from Life Technologies, Grand Island, N.Y., USA. Odyssey blocking buffer, 800CW goat anti-rabbit IgG (H+L) antibody, and Licor Odyssey infrared scanner were purchased from Licor Biosciences, Lincoln, Nebr., USA. Mono-methyl arginine antibody was purchased from Cell Signaling Technology, Danvers, Mass., USA. Methanol was purchased from VWR, Franklin, Mass., USA. 10% Tween 20 was purchased from KPL, Inc., Gaithersburg, Md., USA. […] was purchased from Biostatus Limited, Leicestershire, UK. RKO adherent cells were maintained in growth medium (DMEM/Glutamax medium supplemented with 10% v/v heat inactivated fetal bovine serum and 100 units/mL penicillin-streptomycin) and cultured at 37° C. under 5% CO2. Cell Treatment, in Cell Western (ICW) for Detection of Asymmetric Di-Methyl PABP1 and DNA Content. RKO cells were seeded in assay medium at a concentration of 30,000 cells per mL to a poly-D-lysine coated 384 well culture plate (BD Biosciences 356697) with 50 μL per well. Compound (100 nL) from a 96-well source plate was added directly to 384 well cell plate. Plates were incubated at 37° C., 5% CO2 for 48 hours. After two days of incubation, plates were brought to room temperature outside of the incubator for ten minutes and blotted on paper towels to remove cell media. Cells were fixed for 20 minutes at room temperature by adding 50 μl of 8% PFA followed by aspiration of supernatant with the Biotek EL406 plate washer. Cells were then permeabilized by addition of 50 μL of ice cold 100% methanol directly to each well and incubated for 30 min at room temperature. After 30 min, plates were transferred to a Biotek EL406 plate washer and washed 2 times with 100 μL per well of wash buffer (1×PBS). Next 60 μL per well of Odyssey blocking buffer (Odyssey Buffer with 0.1% Tween 20 (v/v)) were added to each plate and incubated 1 hour at room temperature. Blocking buffer was removed and 20 μL per well of primary antibody was added (asymmetric-methyl PABP1) diluted 1:400 in Odyssey buffer with 0.1% Tween 20 (v/v)) and plates were incubated overnight (16 hours) at 4° C. Plates were washed 5 times with 100 μL per well of wash buffer. Next 20 μL per well of secondary antibody was added (1:800 800CW goat anti-rabbit IgG (H+L) antibody, 1:2000 DRAQS in Odyssey buffer with 0.1% Tween 20 (v/v)) and incubated for 1 hour at room temperature. The plates were washed 5 times with 100 μL per well wash buffer then 2 times with 100 μL per well of water. Plates were allowed to dry at room temperature then imaged on the Licor Odyssey machine which measures integrated intensity at 700 nm and 800 nm wavelengths. Both 700 and 800 channels were scanned. Calculations: First, the ratio for each well was determined by: Each plate included fourteen control wells of DMSO only treatment (minimum inhibition) as well as fourteen control wells for maximum inhibition treated with 20 μM of a reference compound. The average of the ratio values for each control type was calculated and used to determine the percent activation for each test well in the plate. Reference compound was serially diluted three-fold in DMSO for a total of nine test concentrations, beginning at 20 μM. Percent inhibition was determined and IC50 curves were generated using triplicate wells per concentration of compound.

| SMILES | IC50 (Human CARM1 (PRMT4)) | IC50 ([1]; 48 h) | IC50 ([1]; In Cell Western) |
| --- | --- | --- | --- |
| Cc1cc(C)c(CNC(=O)c2cc(-c3cc(CNCCN)ccc3C)cc3c2cnn3C(C)C)c(=O)[nH]1 [Compound 388] | 149 nM | ≥ 20000 nM | – |
| CNCCN(C)Cc1cccc(-c2cc(C(=O)NC3CCOCC3)c3cnn(CC(F)(F)F)c3n2)c1 [Compound 270] | 81 nM | – | 5140 nM |
| CNCCN(C)Cc1cccc(-c2cc(C(=O)N(C)CC3CCOCC3)c3cnn(C(C)C)c3n2)c1 [Compound 298] | 200 nM | – | 9620 nM |
| Cc1c(CNC(=O)c2cc(-c3cccc(CN(C)CCN)c3)nc3c2cnn3C(C)C)cnn1C [Compound 183] | 11.6 nM | – | 1970 nM |
| CC(C)n1ncc2c(C(=O)N3CCOCC3)cc(-c3cccc(CN(C)CCN)c3)nc21 [Compound 279] | 113 nM | – | 18700 nM |
| CNCCN(C)Cc1cccc(-c2cc(C(=O)NC3CCOCC3)c3cnn(C(C)C)c3n2)c1 [Compound 233, 1-isopropyl-6-(3-((methyl(2-(methylamino)ethyl)amino)methyl)phenyl)-N-(tetrahydro-2H-pyran-4-yl)-1H-pyrazolo[3,4-b]pyridine-4-carboxamide] | 42.6 nM | – | 843 nM |
| CNCCN(C)Cc1cccc(-c2cc(-c3ccc(F)cc3)c3cnn(C(C)C)c3n2)c1 [Compound 275] | 92.8 nM | – | 20000 nM |
| CC(C)n1ncc2c(C(=O)NCc3ccn(C)n3)cc(-c3cccc(CN(C)CCN)c3)nc21 [Compound 220] | 32.5 nM | – | 1240 nM |
| CNCCN(C)Cc1cccc(-c2cc(C(=O)N[C@@H](C)c3ccccc3)c3cnn(Cc4ccncc4)c3n2)c1 [Compound 260] | 68.2 nM | – | 20000 nM |
| CC(C)n1ncc2c(C(=O)N(C)C3CCOCC3)cc(-c3cccc(CN(C)CCN)c3)nc21 [Compound 265] | 74.4 nM | – | 10300 nM |
| CNCCN(C)Cc1cccc(-c2cc(C(=O)NC3CC3)c3cnn(C(C)C)c3n2)c1 [Compound 228] | 41.2 nM | – | 1910 nM |
| CC(C)n1ncc2c(C(=O)N3CCN(C)C(=O)C3)cc(-c3cccc(CN(C)CCN)c3)nc21 [Compound 272] | 84.8 nM | – | 20000 nM |
| CC(C)n1ncc2c(NCC(=O)O)cc(-c3cccc(CN(C)CCN)c3)nc21 [Compound 319] | 401 nM | – | 20000 nM |
| CNCCN(C)Cc1cccc(-c2cc(C(=O)NCc3cccnc3)c3cnn(C(C)C)c3n2)c1 [Compound 199] | 15.9 nM | – | 2180 nM |
| CNCCN(C)Cc1cccc(-c2cc(C(=O)NCc3cnc4ccccn34)c3cnn(C(C)C)c3n2)c1 [Compound 176] | 7.29 nM | – | 865 nM |
| CC(C)n1ncc2c(C(=O)NC3CCOC3)cc(-c3cccc(CN(C)CCN)c3)nc21 (stereo not drawn) [Compound 202] | 19.1 nM | – | 1990 nM |
| CC(C)n1ncc2c(C(=O)N3CCSCC3)cc(-c3cccc(CN(C)CCN)c3)nc21 [Compound 258] | 64.2 nM | – | 18500 nM |
| CCOC(=O)Nc1cc(-c2cccc(CN(C)CCNC)c2)nc2c1cnn2C(C)C [Compound 205] | 19.6 nM | – | 5750 nM |
| CC(C)n1ncc2c(C(=O)N3CCC3)cc(-c3cccc(CN(C)CCN)c3)nc21 [Compound 201] | 18.2 nM | – | 3050 nM |
| CNC(=O)c1cc(-c2cccc(CNCCN)c2)nc2c1cnn2C(C)C [Compound 311] | 293 nM | – | 14200 nM |
| CC(C)n1ncc2c(C(=O)N(C)Cc3cccnc3)cc(-c3cccc(CN(C)CCN)c3)nc21 [Compound 224] | 37.5 nM | – | 8470 nM |
| CNCCN(C)Cc1cccc(-c2cc(C(=O)NCc3cn4cccc(C)c4n3)c3cnn(C(C)C)c3n2)c1 [Compound 181] | 9.63 nM | – | 733 nM |
| CC(C)n1ncc2c(NC(=O)NC3CCOCC3)cc(-c3cccc(CN(C)CCN)c3)nc21 [Compound 175] | 6.94 nM | – | 11500 nM |
| CC(C)n1ncc2c(C(=O)NCc3cccnc3)cc(-c3cccc(CN(C)CCN)c3)nc21 [Compound 195] | 13.9 nM | – | 1660 nM |
